Measured values published in US8680153B2, “Method for correcting a lipid imbalance in a subject” (The Royal Institution for the Advancement of …, priority 2005, dated 2014).
Entries after “also recorded” stand apart in the source; their conditions may differ.

Tests used:
[1] = tested on: phospholipid-bound AA and DHA; assay: Essential fatty acid profile in plasma, biweekly treatment for 4 weeks (8 treatments); assay type: in vivo, mice
Description: (§1) Fenretinide Diet Supplementation. Examples 2 to 6: fenretinide (Sigma-Aldrich, Oakville, ON) powder was resuspended in 95% ethanol and subsequently incorporated in the Peptamen liquid diet. It was protected from light and kept at 4° C. before being given to the mice (5 mg/kg per day per mouse). Mock-treated diets were prepared similarly by adding ethanol to the Peptamen diet but omitting the fenretinide supplementation. The diet was given every morning for 28 consecutive days with specific monitoring of the quantity consumed by the mice in each cage. Examples 7 to 12: fenretinide powder was kindly provided by Dr. Robert Smith (NIH; Bethesda, Md., USA). Fenretinide was resuspended in 95% ethanol to make a 2 μg/μL concentration. Approximately 40 μL of this preparation was incorporated into the Peptamen liquid diet (5 mg/kg per day per mouse). The prepared food containing fenretinide was then stored in the dark at 4° C. for no more than 3 hours prior to being administered to the mice. To ensure that the entire drug dose was consumed, the mice were given 10 mL of fenretinide-treated Peptamen, which represents ⅔ of the daily mouse food consumption, in the late afternoon. The remaining 5 mL of Peptamen (without fenretinide) was given the following morning. Mice were treated twice a week for 4 weeks. During the treatment period each mouse was kept in a separate cage (including WT mice) and was monitored to ensure that the entire amount of Peptamen containing the fenretinide or with out was consumed. The diet for the mock-treated control group was prepared and administered similarly to that described above, by adding the same volume of ethanol to the Peptamen diet but omitting the fenretinide supplementation.
Fatty Acid Analysis. Minced tissues isolated from mice were immersed in 1 mM BHA in chloroform and methanol (2:1 vol). For plasma samples (mouse and human), 100 μL of plasma was added to 1 mL of BHA. Lipids were then extracted from all samples according to standard methods (Folch, et al. (1957) J. Biol. Chem. 226:497-509). Identification of phospholipids was carried out by thin-layer chromatography extraction (Van Handel & Zilversmit (1957) J. Lab. Clin. Med. 50:152-157). Also, fractionated lipids were dried and resuspended in heptane:methanol:sulfuric acid (5:1:1) for free fatty acid extraction. Diazomethane was used to esterify the fatty acids released and the esters were identified by GC/MS (Hewlett Packard 5880A, WCOT capillary column (Supelco-10, 35 m×0.5 mm, 1 μm thick)) using commercial standards (Sigma-Aldrich).

Cftr-KO mice = assay: μCT of trabecular bone (femur), biweekly treatment for 4 weeks; assay type: in vivo
Description: as §1
μ-CT. Mice were sacrificed by CO2 and exsanguinated by cardiac puncture. Femurs, tibiae and vertebrae were extracted, stripped of soft tissue and fixed in 4% paraformaldehyde overnight. Micro Computed Tomography (μCT) was performed on the left femur after overnight fixation. The distal metaphysis was scanned with a Skyscan 1072 μCT instrument (Skyscan, Antwerp, Belgium). Image acquisition was performed at 100 kV and 98 μA, with a 0.9° rotation between frames. The two-dimensional images were used to generate three-dimensional reconstructions to obtain quantitative data using the 3D Creator software supplied with the instrument (ANT 3D Creator software, Skyscan, Antwerp, Belgium).
Histological analysis. Mice were given an intra-peritoneal injection of 30 mg/kg calcein at 7 days and 2 days prior to sacrifice to label actively mineralizing surfaces. After overnight fixation in 4% paraformaldehyde and rinsing in phosphate buffered saline (PBS), right femurs and tibiae were embedded in polymethylmethacrylate (MMA) or a mixture of 50% MMA and 50% glycolmethacrylate (GMA). Serial 4- to 6-μm sections were cut on a modified Leica RM 2155 rotary microtome (Leica Microsystems, Richmond Hill, Ontario, Canada). MMA-embedded tissues were stained with von Kossa and toluidine blue, while 4 μm MMA-GMA sections were stained with tartrate-resistant acidic phosphatase (TRAP) and alkaline phosphate (ALP) activity. Images were captured using a Leica DMR microscope (Leica Microsystems) equipped with a Retiga 1300 camera (Qimaging, Burnaby, British Columbia, Canada). The left femur and tibia and the lumbar vertebrae were decalcified with 4% EDTA for paraffin embedding after 14 days. Serial 5 μm sections were cut and stained with hematoxylin and esosin (H&E). Osteoblasts were defined as a single-nucleated, rod shaped cells and were identified along the surface of the trabecular lamellae. Osteoclasts were defined as multi-nucleated cells that are much larger then osteoblasts and display typical macrophage morphology.

ceramide levels = assay: Plasma ceramide levels, biweekly treatment for 4 weeks; assay type: in vivo; details: Cftr-KO mice, 4 weeks of biweekly treatment, p<0.05
Description: Fenretinide Diet Supplementation. Examples 2 to 6: fenretinide (Sigma-Aldrich, Oakville, ON) powder was resuspended in 95% ethanol and subsequently incorporated in the Peptamen liquid diet. It was protected from light and kept at 4° C. before being given to the mice (5 mg/kg per day per mouse). Mock-treated diets were prepared similarly by adding ethanol to the Peptamen diet but omitting the fenretinide supplementation. The diet was given every morning for 28 consecutive days with specific monitoring of the quantity consumed by the mice in each cage. Examples 7 to 12: fenretinide powder was kindly provided by Dr. Robert Smith (NIH; Bethesda, Md., USA). Fenretinide was resuspended in 95% ethanol to make a 2 μg/μL concentration. Approximately 40 μL of this preparation was incorporated into the Peptamen liquid diet (5 mg/kg per day per mouse). […] During the treatment period each mouse was kept in a separate cage (including WT mice) and was monitored to ensure that the entire amount of Peptamen containing the fenretinide or with out was consumed. […]
Ceramide/Sphingolipids analysis. The concentration of ceramide in the (lung, liver, ileum, pancreas homogenates) and plasma from mice and humans were determined by ELISA^39;40 on separated lipids samples by thin layer chromatography, as described above. […]

[2] = cited from earlier work
[3] = Cftr-KO mice, left femur, 8 doses over 4 weeks

SMILES: CC1=C(/C=C/C(C)=C/C=C/C(C)=C/C(=O)Nc2ccc(O)cc2)C(C)(C)CCC1 [fenretinide, all-trans-N-(4-hydroxyphenyl) retinamide]
- Concentration of phospholipid-bound AA in plasma ([1]; Cftr-KO mice, 8 treatments, p<0.05): brought down significantly; also recorded: decreased significantly
- Phospholipid-bound DHA, increase vs control Cftr-KO ([1]; Cftr-KO mice, plasma, 8 treatments): 2 fold
- DHA:AA ratio, increase vs untreated Cftr-KO ([1]; Cftr-KO mice, plasma, 8 treatments, p<0.05): 2 fold
- DHA bound in phospholipids, increase ([1]; WT and Cftr-KO mice, after 4 weeks of biweekly treatments (FIG. 14B legend)): 2 fold
- Signs of osteoporosis in the trabecular bone (μCT) (Cftr-KO mice; Cftr-KO mice, biweekly treatment over four weeks (total 8 doses)): completely eliminate any signs of osteoporosis
- Bone number (BN), increase vs Cftr-KO not treated (Cftr-KO mice; [3]): 2.4 fold
- Bone volume (BV), increase vs Cftr-KO not treated (Cftr-KO mice; [3]): 3.1 fold
- Bone volume/tissue volume (BV/TV), increase vs untreated Cftr-KO (Cftr-KO mice; [3]): 2.7 fold
- Structural model index (SMI), treated WT vs treated Cftr-KO (Cftr-KO mice; left femur, fenretinide-treated mice): no significant (p=0.320) difference
- Trabecular separation, treated WT vs treated Cftr-KO (Cftr-KO mice; left femur, fenretinide-treated mice, p=0.548): no longer a significant difference
- Ceramide levels, increase vs untreated Cftr-KO (ceramide levels): 5.9 fold
- Generalized vascular damage in humans ([2]; clinical trials (Reynolds and Lemons 2001)): does not induce generalized vascular damage
- Reversibility of side effects following discontinuation of the treatment ([2]; neuroblastoma subjects 2-21 years (Garaventa 2003)): ≤ 7 days
- Subjects in whom side effects occurred ([2]; neuroblastoma subjects 2-21 years, oral once a day in 28-day courses (Garaventa 2003)): 15 of the 45
